Measurements: publication PMC11234460, “In Silico Discovery of Stapled Peptide Inhibitor Targeting the Nur77‐PPARγ Interaction and Its Anti‐Breast‐Cancer Efficacy” (Advanced Science, 2024)
Where a SMILES comes first, the peptide text is derived from it. Bridges are numbered along the chain shown (N, C = ends). [ ]: non-standard residue; d: D form. S5 = C=CCCC[C@](C)(N)C(=O)O

Experiments:
[1] = CD spectroscopy, α-helicity; type: physicochemical; conditions: 5 × 10^−5 M peptide in H2O, 25 °C, 1 mm cuvette, 185-260 nm
Description: The detection wavelengths of the peptides were 214 and 254 nm. Solvent A: H2O (containing 0.1% TFA) and solvent B: acetonitrile (containing 0.1% TFA) were used as solvents in linear gradient mixtures. Peptide purification was performed by semi‐preparative HPLC using an XBridge Prep C18 column (19 × 250 mm, 10 µm particle size, flow rate of 20 mL min^−1). Solvents A and B were the same as those in the peptide analysis procedure. The peptides were dissolved in H2O to a final concentration of 5 × 10^−5 M. The purified peptide was detected using a mass spectrometer (6410 Triple Quad LC/MS, Agilent, USA) (Table S2, Supporting Information). The solvent was 80% methanol and 20% H2O (containing 0.1% formic acid). The CD spectra were obtained with a 1 mm quartz cuvette on a BRIGHT TIME Chirasca (Applied Photophysics, Britain) spectropolarimeter with a scan wavelength between 185–260 nm at 25 °C. The helicity of each peptide was calculated by the literature equation.^[ [24] ^]

[2] = tested on: Nur77-knockdown MCF7 and MDA-MB-231 cells; test: Cell viability assay (CCK-8), Nur77-knockdown breast tumor cells; type: cell-based; conditions: Nur77-knockdown MCF7 and MDA-MB-231, 24 h
Description: Cells were seeded 24 h prior to transfection. Transfection was performed with Transfect‐Mate (GenePharma, G04009) according to the manufacturer's protocols. To transfect siRNA into cells seeded on 6 well cell culture plates, 150 pmol of siRNA was mixed with 8 µL Transfect‐Mate, incubated at room temperature for 15 min, and then added to the cells. The medium was changed to DMEM after 6 h of culture, and the cells were incubated at 37 °C in a 5% CO2 incubator. 48 h later, the siRNA was successfully expressed and could be used for further experiments. The siRNAs used were listed in Table S1 (Supporting Information).

MDA-MB-231 cells [3] = test: qPCR of CD36 and FABP4; type: cell-based; conditions: n = 3
MCF7 cells [4] = test: Long-chain fatty acid uptake assay (BODIPY FL C16); type: cell-based, human; conditions: 24 h, BODIPY FL C16 1 h
Description: 5×10^4 MCF7 cells were seeded in confocal dishes and cultured overnight at 37 °C and 5% CO2. The cells were then incubated with a basic DMEM medium containing various concentrations of peptides (1/2/5/10/20 × 10^−6 M for flow cytometry and 10 × 10^−6 M for immunofluorescence) for 24 h. Afterward, 1 µL BODIPY FL C16 (1 × 10^−6 M, Thermo Fisher, D3821) was added to the confocal dishes and incubated with the cells for 1 h. Following incubation, the cell nuclei were stained with Hoechst for 8 min. Uptake of FA was monitored using flow cytometry (CytoFLEX, Beckman Coulter, USA) and DeltaVision OMX (GE, USA).

MDA-MB-231 cells [5] = test: Energy metabolism analysis (Seahorse OCR); type: cell-based; conditions: MDA-MB-231, 24 h treatment, n = 3
Description: Cell energy metabolism analysis was conducted using a Seahorse cell energy metabolism analyzer (Agilent, USA). In brief, 8000 cells were seeded per well in a 96‐well XF96 plate (Agilent, 103794‐100) and cultured overnight. Subsequently, the cells were treated with various concentrations of peptides for 24 h. To prepare for metabolic stress injections, cartridge plates (Agilent, w15023) were hydrated with H2O for at least 12 h at 37 °C before the assay. 1 h before detection, the medium in each well was replaced with 180 µL XF calibrant solution (Agilent, 100840‐000), Afterward, the cell plate was replaced with 180 µL XF DMEM (Agilent, 103575‐100) with glucose (1 × 10^−2 M) (Agilent, 103577‐100), pyruvate (1 × 10^−3 M) (Agilent, 103578‐100) and glutamine (2 × 10^−3 M) (Agilent, 103579‐100) and the mixture was incubated in a CO2‐free incubator at 37 °C for 1 h. Then, 20 µL basic medium, 22 µL 1.5 × 10^−4 M oligomycin, 25 µL 1.5 × 10^−4 M FCCP, and 27 µL 5 × 10^−5 M ROT/AA (Agilent, 10315‐100) were added to wells A, B, C, and D, respectively, of the cartridge plates. The assay was carried out according to the manufacturer's instructions, and the OCR was reported in picomoles per min. The results were normalized to the cell number determined by the CCK‐8 assay.

MCF7 cells [6] = test: Transwell cell migration analysis; type: cell-based, human; conditions: MCF7, 12 h
Description: (§1) 600 µL DMEM complete medium was added to the lower chamber of the Transwell. Next, 2×10^4 cells in 100 µL DMEM medium, containing 1, 2, 5, 10, or 2 × 10^−5 M peptides, were added to the upper chamber of the Transwell. The cells were incubated for 12 h at 37 °C and 5% CO2. After the incubation period, the medium was discarded, and the chamber was washed with PBS. The cells were then fixed with 4% paraformaldehyde for 20 min. The upper chamber was subsequently soaked in crystal violet for 20 min, washed with PBS, and observed under a microscope for analysis.

MDA-MB-231 cells [7] = test: Transwell cell migration analysis; type: cell-based; conditions: MDA-MB-231, 12 h
Description: as §1

MDA-MB-231 cells [8] = test: Scratch (wound-healing) assay; type: cell-based; conditions: MDA-MB-231, 12 h
Description: MCF7 and MDA‐MB‐231 cells were seeded in 6‐well plates and cultured overnight. Once the cell density reached 90%, a line was scratched along the center of the 6‐well plate and images were taken randomly in the scratch domain under a microscope. The cells in each well were then treated with peptides of varying concentrations for 12 h, after which images were taken again in the scratch domain. The formula used to calculate the scratch healing rate was as follows: Scratch healing rate (%) = [(Scratch area at 0 h – Scratch area at 12 h) […] Scratch area at 0 h] × 100%.

C[C@@H](O)[C@@H]1NC(=O)[C@H](CCCNC(=N)N)NC(=O)[C@H](CCCNC(=N)N)NC(=O)[C@@](C)(NC(=O)[C@H](Cc2ccccc2)NC(=O)CNC(=O)[C@H](CCCCN)NC(=O)[C@H](CS)NC(=O)CNC(=O)[C@H](CCC(=O)O)NC(=O)[C@@H](N)CS)CCCC=CCCC[C@@](C)(C(=O)N[C@@H](CCCNC(=N)N)C(=O)N[C@@H](Cc2ccc(O)cc2)C(=O)N[C@@H](Cc2ccc(O)cc2)C(=O)NCC(=O)N[C@@H](CCCNC(=N)N)C(=O)N[C@@H](CCCCN)C(=O)N[C@@H](CCCCN)C(=O)N[C@@H](CCCNC(=N)N)C(=O)N[C@@H](CCCNC(=N)N)C(=O)N[C@@H](CCC(N)=O)C(=O)N[C@@H](CCCNC(=N)N)C(=O)N[C@@H](CCCNC(=N)N)C(=O)N[C@@H](CCCNC(=N)N)C(N)=O)NC1=O [ST-CY14] (H-CEGCKGF[S5]RRT[S5]RYYGRKKRRQRRR-NH2; staple 8-12)
α-Helicity (CD) [1]: 12.01%
Sensitivity of Nur77-knockdown breast tumor cells [2]: less sensitive to ST‐CY14
CD36 and FABP4 transcription (qPCR) (MDA-MB-231 cells [3]): dose‐dependently inhibited CD36 and FABP4 expression at the transcriptional level
FA uptake (flow cytometry) (MCF7 cells [4]; MCF7, 1-20 × 10^−6 M): dose‐dependent decrease in FA levels
FA uptake (immunofluorescence) (MCF7 cells [4]; MCF7, 1 × 10^−5 M): inhibited FA uptake
Oxygen consumption rate (OCR) (MDA-MB-231 cells [5]): significantly reduced
Transwell transmigration (MCF7 cells [6]): inhibited the transmigration
Transwell transmigration (MDA-MB-231 cells [7]): inhibited the transmigration
Scratch healing (MDA-MB-231 cells [8]): suppressed the scratch healing
